Where two headings read alike, the source gives them in different places.
Columns and labels:
[1] = tested on: monoclonal antibody EFA 97.1; assay: Cross-reactivity assay (competitive ELISA, ED50 ratio); format: binding, mouse; settings: ED50 of efavirenz divided by ED50 of the drug, times 100
Description: Supernatants were subjected to serial dilutions and retested in the ELISA screen above omitting the competitive inhibition with free drug. The dilution providing for approximately a 50% reduction from the maximum OD was chosen for proceeding to cross-reactivity testing. This comprised repeating the preceding assay with the antibody at the chosen dilution and in the presence of varying concentrations of different drugs. FIG. 8 presents the results of such a determination.

[2] = tested on: HIV; settings: cited from earlier work
[3] = cited from earlier work
[4] = Physician's Desk Reference; cited from earlier work

CC(C)(C)NC(=O)[C@@H]1C[C@@H]2CCCC[C@@H]2CN1C[C@@H](O)[C@H](Cc1ccccc1)NC(=O)[C@H](CC(N)=O)NC(=O)c1ccc2ccccc2n1 [saquinavir]
% Cross-reactivity [1]: 0%

Cc1c(O)cccc1C(=O)N[C@@H](CSc1ccccc1)[C@H](O)CN1C[C@H]2CCCC[C@H]2C[C@H]1C(=O)NC(C)(C)C [nelfinavir]
% Cross-reactivity [1]: 0%

CC(C)CN(C[C@@H](O)[C@H](Cc1ccccc1)NC(=O)O[C@H]1CCOC1)S(=O)(=O)c1ccc(N)cc1 [amprenavir]
% Cross-reactivity [1]: 0%

O=C1Nc2ccc(Cl)cc2[C@@](C#CC2CC2)(C(F)(F)F)O1 [efavirenz]
virological failure, % of patients ([2]; patients with low plasma levels of efavirenz, <1000 μg/L, 85 total patients): 50%
virological failure, % of patients ([2]; plasma levels 1000-4000 μg/L or more than 4000 μg/L): 18-22%
CNS toxicity frequency, high versus mid plasma levels ([3]; >4000 μg/L compared with 1000-4000 μg/L): approximately three times more frequent
patients discontinuing therapy because of severity or persistence of CNS side effects ([3]; patients receiving efavirenz): about 4%
patients reporting CNS side effects (dizziness, hallucinations, nightmares, insomnia) ([3]; patients receiving efavirenz): 20-40%
% Cross-reactivity [1]: 100%
peak levels [4]: 12.9 µM

COC(=O)N[C@H](C(=O)N[C@@H](Cc1ccccc1)[C@@H](O)CN(Cc1ccc(-c2ccccn2)cc1)NC(=O)[C@@H](NC(=O)OC)C(C)(C)C)C(C)(C)C [atazanavir]
% Cross-reactivity [1]: 0%

Cc1cn([C@H]2C[C@H](N=[N+]=[N-])[C@@H](CO)O2)c(=O)[nH]c1=O [3′-azido-3′-deoxythymidine]
% Cross-reactivity [1]: 0%

CC(C)(C)NC(=O)[C@@H]1CN(Cc2cccnc2)CCN1C[C@@H](O)C[C@@H](Cc1ccccc1)C(=O)N[C@H]1c2ccccc2C[C@H]1O [indinavir]
% Cross-reactivity [1]: 0%

Cc1ccnc2c1NC(=O)c1cccnc1N2C1CC1 [nevirapine]
% Cross-reactivity [1]: 0%

Cc1cn([C@H]2C=C[C@@H](CO)O2)c(=O)[nH]c1=O [2′,3′-didehydro-3′-deoxythymidine]
% Cross-reactivity [1]: 0%

Cc1cccc(C)c1OCC(=O)N[C@@H](Cc1ccccc1)[C@@H](O)C[C@H](Cc1ccccc1)NC(=O)[C@H](C(C)C)N1CCCNC1=O [lopinavir]
% Cross-reactivity [1]: 0%

CC(C)c1nc(CN(C)C(=O)N[C@H](C(=O)N[C@@H](Cc2ccccc2)C[C@H](O)[C@H](Cc2ccccc2)NC(=O)OCc2cncs2)C(C)C)cs1 [ritonavir]
% Cross-reactivity [1]: 0%

CC(C)Nc1cccnc1N1CCN(C(=O)c2cc3cc(NS(C)(=O)=O)ccc3[nH]2)CC1 [delaviridine]
% Cross-reactivity [1]: 0%
